In patent US12325744B2, “Methods for reducing post-operative cognitive dysfunction (POCD)” (The Kennedy Trust for Rheumatology Research, priority 2010, dated 2025):

Test system: IL-1β
Assay: Plasma (systemic) IL-1β by ELISA after tibial surgery
Type: in vivo
Details: wild type mice, minocycline 40 mg/kg i.p., enrofloxacin 10 mg/kg or IL-1Ra 100 mg/kg given prior to surgery, vs surgery alone
Source text: Mice were subjected to an open tibial fracture of the left hind paw with intramedullary fixation in aseptic conditions under general anaesthesia with isoflurane and analgesia with buprenorphineas previously described^18. Other groups of animals were not subjected to any intervention (naïve), or received anesthetic/analgesia alone, or underwent surgery with concurrent administration of minocycline, enrofloxacin, or IL-1 receptor antagonist (IL-1Ra). (For further details please refer to supplemental methods).
IL-6, TNF-α and IL-1β were measured by ELISA^19 (Biosource, CA; Bender Medsystem, CA, respectively). Hippocampal IL-1β was measured by ELISA (Bender Medsystem, CA), as previously described^20. To confirm reliability of dilution linearity and spike recovery cytokine measurement were also performed in mice in which inflammation was induced with i.p. LPS (0111:B4, Invivogen, CA). (For further details please refer to supplemental methods).
Mice were randomly assigned to the following groups: surgery under general anesthesia (S), surgery under general anesthesia plus minocycline (M), surgery under general anesthesia plus enrofloxacin (E), surgery under general anesthesia plus interleukin-1 receptor antagonist (IL-1Ra) (I), surgery in IL1R^−/− mice under general anesthesia (K), general anesthesia without surgery (A), and no intervention (naïve wild-type, or naïve IL1R^−/−). Under aseptic conditions, groups of mice were subjected to an open tibial fracture of the left hind paw with an intramedullary fixation as previously described^2. Briefly, isoflurane (Abbot Laboratories Ltd., Queensborough, Kent, UK) 2.1% in air (1.5 MAC)^3 and buprenorphine (Reckitt Benckiser Healthcare Ltd, Hull, UK) 0.1 mg/kg subcutaneously (sc), were given to provide both surgical anesthesia and extended post-operative analgesia for the surgical intervention and post-surgical recovery. After shaving the overlying skin and disinfecting with chlorhexidine gluconate 0.5% and isopropyl alcohol 70% (PDI, Orangeburg, NY, USA) a fracture of the tibial shaft was created under direct vision. […]

CCN1CCN(c2cc3c(cc2F)c(=O)c(C(=O)O)cn3C2CC2)CC1 [enrofloxacin, reference compound]
Plasma IL-1β after surgery, effect of treatment: exerted no effect on IL-1β plasma concentration
Plasma IL-1β after surgery, effect of treatment (listed as Enrofloxacin): failed to reduce plasma levels of IL-1β
